Data on two compounds can be found in patent publication US10906900B2, “Compounds for using in imaging and particularly for the diagnosis of neurodegenerative diseases” (CENTRE NATIONAL DE LA RECHERCHE SCIENTIFIQUE, priority 2016, dated 2021).

For one series, the target named is α-syn fibers (Homo sapiens (Human), UniProt P37840). The series is described as follows: In vitro direct determination of Kd and Bmax by fluorescence, α-syn fibers. The class given is binding. The conditions noted are these: for αsyn Bmax1: density of binding sites; for αsyn Bmax1 / Kd: direct fluorescence, Scatchard analysis; for Kd: α-syn fibers 200 nM, read-out: αsyn Kd1; for αsyn Bmax1 (number of sites/monomer): in brackets in the Bmax cell. How it is done:
(§1) To obtain fiber assembly, α-syn is incubated in Tris-HCl 50 mM pH7.5, KCl 150 mM at 37° C. under continuous agitation during 4 days. The lyophilized Aβ1-42 was dissolved in 1,1,1,3,3,3-Hexafluoro-2-propanol (HFIP) at 0.2 mg/mL and incubated for 24 h at 37° C. to obtain the complete solubilization. The HFIP is evaporated under nitrogen stream to obtain a dry product. To start the fiber assembly, the dry peptide is resuspended in PBS pH7.4, 10% (v/v) DMSO and incubated at 37° C. for 3 days without agitation.
(§2) Fresh solutions of each test compound (2.5 mM in DMSO) are diluted in PBS pH=7.4 at concentrations between 0.5 nM and 5 μM in the presence or absence of α-syn (200 nM), Aβ1-42 (500 nM) or Tau (200 nM) fibers in a final 2 mL volume. After 1 h of incubation at RT, the binding of each compound to α-syn, A131-42 or Tau fibers is measured by fluorescence using the spectral changes of the compounds during their binding to the fibers, using the appropriate excitation/emission wavelengths (those giving the highest fluorescence variation during binding to the fibres). For each concentration of compound added to the fibres, the bound and free fractions are measured by fluorescence according to the following equation: Fm=FBB+FF×(T−B)
(§3) The value of FF is determined by measuring the fluorescence of known concentrations of compounds in the absence of fibres. The FB value is determined by measuring the maximum fluorescence of known concentrations of compounds in the presence of saturated concentrations of α-syn, Aβ1-42, or Tau fibers.
(§4) The values of B thus determined versus the concentrations of the free fractions (T-B) are analyzed according to the Michaelis-Menten equation. The affinity (Kd) and density of binding sites within the fibers of α-syn, Aβ1-42 or Tau (Bmax) are determined by Scatchard analysis, which also makes it possible to highlight multiple site classes.

The target in series [1] is Aβ1-42 fibers (Homo sapiens, UniProt P05067). The series is described as follows: In vitro direct determination of Kd and Bmax by fluorescence, Aβ1-42 fibers. The class given is binding. The conditions noted are these: for Aβ Bmax1: density of binding sites; for Aβ Bmax1 / Kd: direct fluorescence, Scatchard analysis; for Kd: Aβ1-42 fibers 500 nM, read-out: Aβ Kd1; for Aβ Bmax1 (number of sites/monomer): in brackets in the Bmax cell. How it is done: as §1, §2, §3, §4
Sequence of Aβ1-42 fibers (Homo sapiens, UniProt P05067) (P05067 672-713 limits assumed): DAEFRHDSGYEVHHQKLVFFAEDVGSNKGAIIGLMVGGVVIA

For series [2], the system named is Aβ1-42 fibers. The description is as above. The class given is binding. To be noted: selective = good affinity and at least two times greater than for at least one of the two other proteins. How it is done:
as §1, §2, §3, §4

The next series has as its target Tau fibers (Homo sapiens (Human), UniProt P10636). The series is described as follows: In vitro direct determination of Kd and Bmax by fluorescence, Tau fibers. It is filed as binding. To be noted: for Tau Bmax1: density of binding sites; for Tau Bmax1 / Kd: direct fluorescence, Scatchard analysis; for Kd: Tau fibers 200 nM, read-out: Tau Kd1; for Tau Bmax1 (number of sites/monomer): in brackets in the Bmax cell; for Tau selectivity according to analysis of Kd (Tables 6 and 7): selective = good affinity and at least two times greater than for at least one of the two other proteins. How it is done: Human Tau protein (isoform h2N4RTau) is expressed in the vector pET11d in E. Coli (strain BL21 (DE3), (Stratagene, La Jolla, Calif.)) and purified according to the described method (Barghorn S, Biernat J, Mandelkow E. (2005) Methods Mol Biol. 299:35-51). The Tau purified concentration is determined by measuring the absorbance at 280 nm using a molar extinction coefficient of 7450 M^−1 cm^−1.
(§5) Tau protein in PBS buffer containing 1 mM DTT is assembled into fiber in the presence of one twelfth of a molar equivalent of heparin at 37° C. under stirring.
as §2
Where Fm is the fluorescence measured in the presence of fibers at a concentration T of the compound added to the fibers, FB is the specific fluorescence of the bound compound, FF is the specific fluorescence of the free compound, and B is the concentration of the fiber bound compound at a given concentration T (Bell, J. E., “Fluorescence; Solution Studies”, Spectrometry in Biochemistry, vol. I, Bell, J. E., ed., CRC Press, Inc., Boca Raton, Fla., pp. 155-194 (1981)).
as §3
Thus, at each point, the concentration of bound compound B is determined according to the following equation: B=(Fm−FF×T)/(FB−FF)
as §4

Series [3] can be described thus: In vivo evaluation of fluorine-18-labelled tracer: PET/CT and tissue radioactivity (BBB crossing, bone fixation). The conditions noted are these: healthy adult male Wistar rat, intravenous injection of 18F tracer. The procedure:
The objective is to determine whether the tracer has the blood-brain barrier (BBB) crossing properties in sufficient quantities to be used as a PET imaging tracer. In addition, bone fixation can be qualified, which reflects the degree of defluorination of the tracer in vivo.
Animal Model: Adult male rats of Wistar strain.
In vivo study: the healthy animal receives an intravenous injection of the tracer test (molecule 28).
From the moment of injection, imaging is carried out using a dedicated system (PET/CT) which records the intracerebral accumulation of radioactivity (Sérrière et al. Nucl. Med. Biol. 2014, 41:103-13; Sérrière et al. Neurobiol. Aging 2015, 36:1639-52). At the end of the imaging, the animal is euthanized; the brain and a bone fragment (femur) are collected, weighed and their radioactivity is measured. This method allows to precisely quantify the accumulation of the tracer in the tissues. The results are expressed as a percentage of the injected tracer dose/g of tissue (% DI/g).

The next series has as its target Aβ1-42 fibres (Homo sapiens, UniProt P05067). The series is described as follows: In vitro inhibition of ThT binding and determination of Ki (fluorescence), Aβ1-42 fibres. To be noted: vs Thioflavin T 500 nM; Aβ1-42 fibres 500 nM; PBS pH7.4, 1 h RT; read-out: Ki Aβ. How it is done:
as §1
(§6) Protein fibers are systematically observed by electron microscopy (Jeol 1400). The images are recorded with a CCD camera (Gatan Orius). Finally, the percentage of α-syn and Aβ1-42 aggregated into fibers is checked on the pellet after centrifugation at 40000×g for 20 min and determination of the concentration of soluble protein/peptide remaining in the supernatant.
(§7) The samples are incubated for 1 h at room temperature (RT) to reach equilibrium. […] From each curve, the IC50 value is measured using the following equation: Y=min+(max−min)/1+([…])^slope

The next series has as its target α-syn fibres (Homo sapiens (Human), UniProt P37840). The series is described as follows: In vitro inhibition of ThT binding and determination of Ki (fluorescence), α-syn fibres. How it is done:
as §1, §6, §7

In another series the target is Tau fibres (Homo sapiens (Human), UniProt P10636). The series is described as follows: In vitro inhibition of ThT binding and determination of Ki (fluorescence), Tau fibres. How it is done:
as §5, §7

Where [4] appears, read: selective = good affinity and at least two times greater than for at least one of the two other proteins.

Sequence of Tau fibers (P10636 other isoform, or with tags, fused parts or gaps): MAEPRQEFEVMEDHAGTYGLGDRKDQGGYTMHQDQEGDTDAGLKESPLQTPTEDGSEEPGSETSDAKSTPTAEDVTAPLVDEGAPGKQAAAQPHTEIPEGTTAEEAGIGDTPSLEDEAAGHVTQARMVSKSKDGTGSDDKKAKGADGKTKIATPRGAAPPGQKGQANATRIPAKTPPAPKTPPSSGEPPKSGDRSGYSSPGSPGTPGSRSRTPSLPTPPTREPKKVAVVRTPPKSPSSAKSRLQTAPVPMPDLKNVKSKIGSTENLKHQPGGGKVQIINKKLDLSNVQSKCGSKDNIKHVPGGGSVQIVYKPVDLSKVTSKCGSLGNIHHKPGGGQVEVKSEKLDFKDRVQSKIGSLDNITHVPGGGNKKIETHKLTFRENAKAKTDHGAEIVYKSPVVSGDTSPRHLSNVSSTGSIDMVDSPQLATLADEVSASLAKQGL
Sequence of Tau fibres (P10636 other isoform, or with tags, fused parts or gaps): as above
Sequence of Aβ1-42 fibres (P05067 672-713 limits assumed): as the sequence (P05067 672-713 limits assumed) above

Regarding `CN(CCF)c1ccc(C#Cc2cc3cccnc3[nH]2)cc1` [Compound 28, 4-((1H-Pyrrolo[2,3-b]pyridin-2-yl)ethynyl)-N-(2-fluoroethyl)-N-methylaniline], at α-syn fibers, the “αsyn Bmax1” value was 141.5 ± 45 nmol/μmol prot, the Kd came out at 2.4 ± 1 nM and the “αsyn Bmax1 (number of sites/monomer)” value is 1/7. In addition, at Aβ1-42 fibers [1], the “Aβ Bmax1” value is 1.8 ± 0.6 nmol/μmol prot, the Kd amounted to 1.2 ± 1 nM and the “Aβ Bmax1 (number of sites/monomer)” value is 1/600. In addition, in the series on Aβ1-42 fibers [2], the “Aβ selectivity according to analysis of Kd (Tables 6 and 7)” value was “selective”. At Tau fibers, the “Tau Bmax1” value is recorded as 46.5 ± 5 nmol/μmol prot; the Kd came to 0.97 ± 0.4 nM; the “Tau Bmax1 (number of sites/monomer)” value was 1/20; the “Tau selectivity according to analysis of Kd (Tables 6 and 7)” value is reported as “selective”. The “Passing of the BBB: brain accumulation, percentage of injected tracer dose/g of tissue” value in series [3] (brain collected at end of imaging) is “≈ 0.4 % DI/g”. For the same compound, the “binding to bone: femur accumulation, percentage of injected tracer dose/g of tissue” value in series [3] (femur at end of imaging, reflects defluorination) came out at 0.3 % DI/g.

For `CN(C)c1ccc(C#Cc2cc3cccnc3[nH]2)cc1` [Compound 22a, 4-((1H-Pyrrolo[2,3-b]pyridin-2-yl)ethynyl)-N,N-dimethylaniline], on α-syn fibers, the “αsyn Bmax1” value was found to be 69.5 ± 20 nmol/μmol prot, the Kd is 0.53 ± 0.2 nM and the “αsyn Bmax1 (number of sites/monomer)” value was 1/14. For the same compound, the “α-syn selectivity according to analysis of Kd (Tables 6 and 7)” value at α-syn fibers (setting [4]) was “selective”. In addition, at Aβ1-42 fibers [1], the “Aβ Bmax1” value came to 3.04 ± 0.6 nmol/μmol prot, the Kd was determined as 11.8 ± 3 nM and the “Aβ Bmax1 (number of sites/monomer)” value is recorded as 1/300. The Ki (as a rule, a measure of affinity in units of concentration, obtained from inhibition or displacement) on Aβ1-42 fibres turned out to be 24.5 ± 9 nM. In addition, the “α-syn selectivity according to analysis of Ki (Table 5)” value on α-syn fibres (setting [4]) is recorded as “selective”. Besides, the Ki at α-syn fibres (vs Thioflavin T 500 nM, α-syn fibres 200 nM, PBS pH7.4, 1 h RT, read-out: Ki αsyn) is 4.7 ± 2 nM. The compound also yielded a Ki at Tau fibres of 4.61 ± 0.2 nM. On Tau fibres (setting [4]), the “Tau selectivity according to analysis of Ki (Table 5)” value is reported as “selective”. Further, at Tau fibers, the “Tau Bmax1” value came to 93.0 ± 15 nmol/μmol prot; the Kd was determined as 0.44 ± 0.1 nM; the “Tau Bmax1 (number of sites/monomer)” value was 1/10; the “Tau selectivity according to analysis of Kd (Tables 6 and 7)” value is recorded as “selective”.
